Experimental data reported in patent publication US7259004B1, “Endophytic streptomycetes from higher plants with biological activity” (Montana State University, priority 2002, dated 2007).
≈ marks a conversion by molar mass, not a printed value.

How the values were obtained:
[1] = tested on: Streptococcus pneumoniae ATCC 49619; assay: disk diffusion assay; type: cell-based; settings: for Disk Diffusion, Streptococcus pneumoniae 49619: kakadumycin B at 10 μg, control antibiotic, MHA w/5% dsb 35° C. w/5% CO2
[2] = tested on: Pseudomonas aeruginosa ATCC 27853; assay: disk diffusion assay; type: cell-based; settings: kakadumycin B at 10 μg; control antibiotic; MHA 35° C.
[3] = tested on: Staphylococcus aureus (MRSA) ATCC 33591; assay: disk diffusion assay; settings: MHA 35° C.
[4] = tested on: DNA synthesis in Bacillus subtilis; assay: macromolecular synthesis whole cell assay, [3H]thymidine incorporation; type: cell-based; settings: 1×MIC
[5] = tested on: Shigella dysenteriae ATCC 11835; assay: disk diffusion assay; type: cell-based; settings: kakadumycin B at 10 μg; control antibiotic; MHA 35° C.
Bacillus anthracis K8902 = type: cell-based; settings: 10 micrograms per disk; ciprofloxacin 5, vancomycin 30 micrograms per disk; 35° C.
[6] = tested on: Klebsiella pneumoniae ATCC 10031; assay: disk diffusion assay; settings: MHA 35° C.
[7] = tested on: Enterococcus faecium ATCC 49624; assay: disk diffusion assay; type: cell-based; settings: for diameter of the zone of inhibition, Enterococcus faecium ATCC 49624: 10 micrograms per disk, ciprofloxacin 5, vancomycin 30 micrograms per disk, 35° C.
[8] = tested on: Enterococcus faecium ATCC 51559; assay: disk diffusion assay; type: cell-based; settings: 10 micrograms per disk; ciprofloxacin 5, vancomycin 30 micrograms per disk; 35° C.
[9] = tested on: Enterococcus faecalis ATCC 51299; assay: disk diffusion assay; type: cell-based; settings: for Disk Diffusion, Enterococcus faccalis (VRE) 51299: kakadumycin B at 10 μg, control antibiotic, MHA 35° C.
[10] = tested on: Acinetobacter sp. ATCC 49137; assay: disk diffusion assay; type: cell-based; settings: for Disk Diffusion, Acinetobacter spp. 49137: kakadumycin B at 10 μg, control antibiotic, MHA 35° C.
[11] = tested on: Burkholderia cepacia ATCC 25416; assay: disk diffusion assay; settings: kakadumycin B at 10 μg; control antibiotic; MHA 35° C.
[12] = tested on: Staphylococcus aureus GISA, ATCC 700787; assay: microbroth dilution MIC; type: cell-based; settings: ATCC700787, read-out: MIC Staphylococcus aureus GISA, ATCC 700787
[13] = tested on: Neisseria gonnorhea ATCC 49226; assay: disk diffusion assay; type: cell-based; settings: 10 micrograms per disk; ciprofloxacin 5, vancomycin 30 micrograms per disk; GC agar with 1% growth supplement with 5% CO2
[14] = tested on: Listeria monocytogenes 19114; assay: microbroth dilution MIC; type: cell-based; settings: Listeria monocytogenes, ATCC19114; Table 15; read-out: MIC Listeria monocytogenes ATCC 19114
S. epidermis 12228 = assay: microbroth dilution MIC; type: cell-based, Staphylococcus epidermidis; settings: Staphylococcus epidermidis, ATCC12228; Table 15; read-out: MIC Staphylococcus epidermidis ATCC 12228
[15] = tested on: Streptococcus pneumoniae 49619; assay: microbroth dilution MIC; type: cell-based; settings: Streptococcus pneumoniae, ATCC49619; Table 15; read-out: MIC Streptococcus pneumoniae ATCC 49619
[16] = tested on: Staphylococcus aureus ATCC 33591 (MRSA); assay: microbroth dilution MIC; type: cell-based; settings: Staphylococcus aureus; Table 15
E. faecium 49624 = assay: microbroth dilution MIC; type: cell-based, Enterococcus faecium; settings: Enterococcus faecium, ATCC49624; Table 15; read-out: MIC Enterococcus faecium ATCC 49624
[17] = tested on: Cell wall synthesis in Bacillus subtilis; assay: macromolecular synthesis whole cell assay, [3H]N-acetyl glucosamine incorporation; type: cell-based; settings: 1×MIC
[18] = tested on: Streptococcus pneumoniae ATCC 70676; assay: microbroth dilution MIC; type: cell-based; settings: ATCC70676, read-out: MIC Streptococcus pneumoniae ATCC 70676
[19] = tested on: Staphyloccus aureus MH II Eli Lilly Co.; assay: microbroth dilution MIC; settings: Staphylococcus aureus, read-out: MIC Staphyloccus aureus MH II Eli Lilly Co.
[20] = tested on: Staphylococccus aureus 27734; assay: microbroth dilution MIC; type: cell-based, Staphylococcus aureus; settings: Staphylococcus aureus, ATCC27734; Table 15; read-out: MIC Staphylococcus aureus ATCC 27734
B. subtilis 1A757 = assay: microbe, parasite or virus in culture; type: cell-based, Bacillus subtilis
S. aureus 29213 = assay: microbroth dilution MIC; type: cell-based, Staphylococcus aureus; settings: Staphylococcus aureus, ATCC29213; Table 15; read-out: MIC Staphylococcus aureus ATCC 29213
[21] = tested on: Enterococcus faecalis ATCC 29212; assay: disk diffusion assay; type: cell-based
[22] = tested on: Listeria monocytogenes 19115; assay: microbroth dilution MIC; type: cell-based; settings: Listeria monocytogenes, ATCC19115; Table 15; read-out: MIC Listeria monocytogenes ATCC 19115
[23] = tested on: Shigella dysenteriae ATCC 11835; assay: microbroth dilution MIC; type: cell-based; settings: ATCC11835, read-out: MIC Shigella dysenteriae ATCC 11835
[24] = tested on: Staphylococccus simulans 11631; assay: microbroth dilution MIC; type: cell-based, Staphylococcus simulans; settings: Staphylococcus simulans, ATCC11631; Table 15; read-out: MIC Staphylococcus simulans ATCC 11631
[25] = tested on: Staphylococcus aureus ATCC 29213; assay: disk diffusion assay; type: cell-based
[26] = tested on: Streptococcus pneumoniae ATCC 70674; assay: microbroth dilution MIC; type: cell-based; settings: ATCC70674, read-out: MIC Streptococcus pneumoniae ATCC 70674
S. aureus ATCC 6583P = assay: MIC with and without double stranded DNA; type: cell-based, Staphylococcus aureus; settings: Staphylococcus aureus, ATCC6583P, read-out: MIC S. aureus ATCC 6583P
[27] = tested on: Escherichia coli ATCC 25922; assay: disk diffusion assay; type: cell-based; settings: kakadumycin B at 10 μg; control antibiotic; MHA 35° C.
[28] = tested on: S. maltophilia ATCC 13637; assay: disk diffusion assay; type: cell-based, Stenotrophomas maltophilia; settings: kakadumycin B at 10 μg; control antibiotic; MHA 35° C.
[29] = tested on: Human Primary Mammary Epithelial HMEC; assay: CellTiter 96 Aqueous Non-Radioactive Cell Proliferation Assay; type: cell-based
Procedure: (§1) The munumbicins were then tested against three human cancer cell lines (ATCC) and human primary mammary epithelial cells (HMECs) (Clonetics; Biowhittaker, Walkersville, Md.) using a CellTiter 96® Aqueous Non-Radioactive Cell Proliferation Assay kit from Promega (Madison, Wis.). The cell lines were A-549 (lung epithelial carcinoma, ATCC CCL-185), ME-180 (cervical epithelial epidermoid carcinoma, ATCC HTB-33), and BT-20 (breast epithelial cancer, ATCC HTB-19), and were grown in the media recommended by ATCC. The primary mammary cells were cultured as recommended by the manufacturer in mammary epithelial cell growth media (MEGM®). […] After seeding, the cells were incubated for five hours at 37° C. before addition of the munumbicins. Two-fold serial dilutions of the munumbicins were made in the culture medium, and a volume equal to that of the seeded cells for each dilution was added to three wells of cells. Each plate also contained some wells with cells plus medium only and some wells with medium only. […] The A-549 and ME-180 cells were incubated for 48 hours. […] The plates were incubated at 37° C. for one to four hours, and the OD490 was determined. The OD reading of all wells was corrected for background by subtracting the reading of wells containing medium only. […] Kakadumycin A was tested against three human cancer cell lines (ATCC) and human primary mammary epithelial cells using the procedure described above for the munumbicins. Kadadumycin B was tested against one human cancer cell line.

[30] = tested on: Human Breast Cancer Epithelial BT-20; assay: as above; type: cell-based; settings: text of Examples 15, 18, 19
Procedure: as §1

[31] = tested on: Staphylococcus aureus (GISA) ATCC 700699; assay: disk diffusion assay; settings: kakadumycin B at 10 μg; control antibiotic; MHA 35° C.
S. epidermis ATCC 12228 = assay: disk diffusion assay; type: cell-based, Staphylococcus epidermidis; settings: kakadumycin B at 10 μg; control antibiotic; MHA 35° C.
[32] = tested on: Salmonella typhimurium ATCC 13311; assay: disk diffusion assay; settings: kakadumycin B at 10 μg; control antibiotic; MHA 35° C.
[33] = tested on: Micrococcus luteus ATCC 9341; assay: disk diffusion assay; settings: kakadumycin B at 10 μg; control antibiotic; MHA 35° C.
[34] = A3-5-1 10 micrograms, Cip 5 micrograms
[35] = kakadumycin B at 10 μg, control antibiotic
[36] = 10 micrograms per disk, ciprofloxacin 5, vancomycin 30 micrograms per disk, 35° C.
[37] = kakadumycin B at 10 μg, control antibiotic, MHA 35° C.

O=C(O)c1cn(C2CC2)c2cc(N3CCNCC3)c(F)cc2c1=O [Ciprofloxacin, reference compound]
Disk Diffusion, Streptococcus pneumoniae 49619 [1]: 24 mm (cipro) | Disk Diffusion, Pseudomonas aeruginosa 27853 [2]: 30 mm (cipro) | Disk Diffusion, Staphylococcus aureus (MRSA) 33591 [3, 34]: Cip (5 micro-)-26 mm | Disk Diffusion, Staphylococcus aureus (MRSA) 33591 [3, 35]: 27 mm (cipro) | % [3H]thymidine (DNA synthesis) incorporation of that of the untreated culture ([4]; 5 min): 36% | % [3H]thymidine (DNA synthesis) incorporation of that of the untreated culture ([4]; 10 min): 35% | Disk Diffusion, Shigella dysenteriae 11835 [5]: 24 mm (cipro) | diameter of the zone of inhibition, Bacillus anthracis K8902 (Bacillus anthracis K8902): 16 mm | Disk Diffusion, Klebsiella pneumoniae 10031 [6, 34]: Cip (5 micro-)-34 mm | Disk Diffusion, Klebsiella pneumoniae 10031 [6, 35]: 32 mm (cipro) | diameter of the zone of inhibition, Enterococcus faecium ATCC 49624 [7]: 15 mm | diameter of the zone of inhibition, Enterococcus faecium ATCC 51559 [8]: 13 mm | diameter of the zone of inhibition, Enterococcus faecalis ATCC 51299 [9, 36]: 22 mm | Disk Diffusion, Enterococcus faccalis (VRE) 51299 [9]: 23 mm (cipro) | diameter of the zone of inhibition, Acinetobacter sp. ATCC 49137 ([10]; 10 micrograms per disk, ciprofloxacin 5, vancomycin 30 micrograms per disk, grown at 30° C.): 29 mm | Disk Diffusion, Acinetobacter spp. 49137 [10]: 26 mm (cipro) | Disk Diffusion, Burkholderia cepacia 25416 [11]: 24 mm (cipro)

CN[C@H](CC(C)C)C(=O)N[C@H]1C(=O)N[C@@H](CC(N)=O)C(=O)N[C@H]2C(=O)N[C@H]3C(=O)N[C@H](C(=O)N[C@H](C(=O)O)c4cc(O)cc(O)c4-c4cc3ccc4O)[C@H](O)c3ccc(c(Cl)c3)Oc3cc2cc(c3O[C@@H]2O[C@H](CO)[C@@H](O)[C@H](O)[C@H]2O[C@H]2C[C@](C)(N)[C@H](O)[C@H](C)O2)Oc2ccc(cc2Cl)[C@H]1O [Vancomycin, reference compound]
MIC [12]: 8 µg/mL (≈ 5.52 µM) | diameter of the zone of inhibition, Neisseria gonnorhea ATCC 49226 [13]: 13 mm | MIC [14]: 1 µg/mL (≈ 0.69 µM) | diameter of the zone of inhibition, Streptococcus pneumoniae ATCC 49619 ([1]; 10 micrograms per disk, ciprofloxacin 5, vancomycin 30 micrograms per disk, MHA with 5% dsb. and 5% CO2): 20 mm | MIC (S. epidermis 12228): 1 µg/mL (≈ 0.69 µM) | MIC [15]: 0.125 µg/mL (≈ 0.0863 µM) | MIC [16]: 2 µg/mL (≈ 1.38 µM) | MIC (E. faecium 49624): 0.5 µg/mL (≈ 0.345 µM) | % [3H]N-acetyl glucosamine (Cell wall synthesis) incorporation of that of the untreated culture ([17]; 5 min): 33% | % [3H]N-acetyl glucosamine (Cell wall synthesis) incorporation of that of the untreated culture ([17]; 10 min): 41% | MIC [18]: 0.25 µg/mL (≈ 0.173 µM) | diameter of the zone of inhibition, Enterococcus faecium ATCC 49624 [7]: 22 mm | MIC [19]: 0.06 µg/mL (≈ 0.0414 µM) | diameter of the zone of inhibition, Enterococcus faecium ATCC 51559 [8]: 0 mm | MIC [20]: 1 µg/mL (≈ 0.69 µM) | 1×MIC against Bacillus subtilis (B. subtilis 1A757): 0.25 micrograms/ml | increase of MICs when DNA was added (B. subtilis 1A757): not affected | MIC (B. subtilis 1A757; Bacillus subtilis, 1A757, read-out: MIC B. subtilis 1A757): 0.125 µg/mL (≈ 0.0863 µM) | MIC (S. aureus 29213): 1 µg/mL (≈ 0.69 µM) | diameter of the zone of inhibition, Enterococcus faecalis ATCC 29212 [21, 36]: 18 mm | MIC [22]: 1 µg/mL (≈ 0.69 µM) | MIC [23]: 2 µg/mL (≈ 1.38 µM) | MIC [24]: 1 µg/mL (≈ 0.69 µM) | diameter of the zone of inhibition, Staphylococcus aureus ATCC 29213 [25, 36]: 15 mm | MIC [26]: 0.25 µg/mL (≈ 0.173 µM) | MIC (S. aureus ATCC 6583P): 0.5 µg/mL (≈ 0.345 µM)

kakadumycin B
Disk Diffusion, Streptococcus pneumoniae 49619 [1]: 22 mm | concentration causing detectable lysis of human red blood cells (human red blood cells): > 80 micrograms/ml | Disk Diffusion, Pseudomonas aeruginosa 27853 [2]: R | Disk Diffusion, Escherichia coli 25922 [27]: 8 mm | Disk Diffusion, Stenotrophomas maltophilia 13637 [28]: 13 mm | IC50 cytotoxicity, human mammary epithelial cells [29]: 10.5±1.4 nanograms/ml | IC50 human breast cancer cell line BT 20 [30]: 0.008 µg/mL | Disk Diffusion, Staphylococcus aureus (GISA) 700699 [31]: 22 mm | Disk Diffusion, Staphylococcus aureus (MRSA) 33591 [3, 35]: 22 mm | Disk Diffusion, Shigella dysenteriae 11835 [5]: 10 mm | Disk Diffusion, Staphylococcus epidermidis 12228 (S. epidermis ATCC 12228): 23 mm | Disk Diffusion, Klebsiella pneumoniae 10031 [6, 35]: R | Disk Diffusion, Enterococcus faecium 49624 [7, 37]: 22 mm | Disk Diffusion, Enterococcus faccalis (VRE) 51299 [9]: 21 mm | Disk Diffusion, Acinetobacter spp. 49137 [10]: 11 mm | Disk Diffusion, Burkholderia cepacia 25416 [11]: R | Disk Diffusion, Enterococcus faecalis 29212 [21, 37]: 20 mm | Disk Diffusion, Salmonella typhimurium 13311 [32]: R | Disk Diffusion, Staphylococcus aureus 29213 [25, 37]: 17 mm | Disk Diffusion, Micrococcus luteus 9341 [33]: 28 mm
